Data: patent US7507839B2, “Therapeutic ion channel blocking agents and methods of use thereof” (The Walter and Eliza Hall Institute of Medical Research, priority 2002, dated 2009)

Key:
Kv1.3 = Kv1.3 (UniProt P16390); assay: Whole-cell patch-clamp block of Kv1.3 current; assay type: cell-based; settings: for Kd: L929 cells stably expressing mKv1.3 or activated human T cells, fit of normalized peak current to Hill equation
Method: The effectiveness of the generated compounds in blocking the Kv1.3 current was assayed on L929 cells stably expressing mKv1.3 or on activated human T cells. The generation of this cell line has been previously described (Grissmer et al. (1995) Mol. Pharmacol. 45: 1227). The cells were grown in Dulbecco's modified Eagle's medium containing 10% fetal calf serum, 2 mM L-glutamine, 1 mM Na^+ pyruvate, 100 units/ml penicillin, 100 μg/ml streptomycin and 250 μg G418 (to keep them under selection pressure). The cells were studied in the whole-cell configuration of the patch-clamp technique. The holding potential in all experiments was −80 mV. Currents were recorded in normal Ringer solution (160 mM NaCl, 4.5 mM KCl, 2 mM CaCl2, 1 mM MgCl2, 10 mM HEPES, pH 7.4, 290-310 mOsm) with an internal pipette solution containing 134 mM KF, 2 mM MgCl2, 10 mM HEPES, 10 mM EGTA (pH 7.2, 290-310 mOsm). If currents exceeded 2 nA 60-80% series resistance compensation was used. 200-ms depolarising pulses to 40 mV were applied every 30 s (Grissmer at al. (1995) Mol. Pharmacol. 45: 1227). Each compound was tested twice at two different concentrations. Kd values were determined by fitting the reduction of the normalized peak current to the Hill equation. […]

Kv1.2 = Kv1.2 (Homo sapiens, UniProt P16389); assay: Whole-cell patch-clamp, Kv1.2; assay type: cell-based
[1] = Solubility in aqueous media; assay type: physicochemical; settings: judged by whether testable in the cell-based T-cell proliferation assay
Excerpt: (§1) The comparative example 4 was thus considered to lack therapeutically use.
This was unexpected given the lipophilicity of these compounds. The n-butyl fragment in example 2 is considerably more lipophilic than the phenyl group located in the equivalent position of comparative example 4 (fragment hydrophobicity value 2.5 verses 1.9 respectively).

Kv1.1 = Kv1.1 (Homo sapiens, UniProt Q09470); assay: Whole-cell patch-clamp, Kv1.1; assay type: cell-based
[2] = test system: peripheral blood mononuclear cells; assay: [3H]-Thymidine incorporation assay; assay type: cell-based, human; settings: anti-CD3 stimulated PBMC, 48 h; for Normalised [3H]-TdR incorporation: untreated control = 1
Method: [^3H]-thymidine incorporation is a widely used test to assay the proliferative activity of human and rodent lymphocytes. As cells divide [^3H]-thymidine will be incorporated into the newly synthesised DNA of the resulting daughter cells. The faster cells grow the more radioactive [^3H]-thymidine will be incorporated. Any compound that inhibits lymphocytes proliferation will reduce the uptake of radioactivity by the cells treated with it compared to the untreated controls.
Example 2 was tested to determine its ability to inhibit [H]-thymidine incorporation. Resting peripheral blood mononuclear cells from healthy volunteers were seeded at 2×10^5 cells per well in medium (RPMI 1640 supplemented 10% fetal calf serum, 2 mM glutamine, 1 mM sodium pyruvate, 1% nonessential amino acids, 100 units/ml penicillin, 100 μg/ml streptomycin and 50 μM β-mercaptoethanol) in flat-bottom 96 well plates (final volume 200 μl). Cells were pre-incubated with the compound of example 2 for 60 min, and were stimulated with 5 ng/ml anti-CD3 Ab) for 48 h. [^3H]-Thymidine (1 μCi per well) was added for the last 6 h. Cells were harvested onto glass fibre filters and radioactivity measured in a scintillation counter. All experiments were done in triplicate.

Kv1.4 = Kv1.4 (Homo sapiens, UniProt P22459); assay: Whole-cell patch-clamp, Kv1.4; assay type: cell-based
Kv1.5 = Kv1.5 (Homo sapiens, UniProt P22460); assay: Whole-cell patch-clamp, Kv1.5; assay type: cell-based
IKCa1 = IKCa1 (Homo sapiens, UniProt O15554); assay: Whole-cell patch-clamp, IKCa1; assay type: cell-based
SKMI = SKMI (Homo sapiens, UniProt P35499); assay: Whole-cell patch-clamp, SKMI; assay type: cell-based; settings: at 10 μM
Stability = assay type: physicochemical
Excerpt: as §1

Kv1.2, sequence (P16389 whole entry): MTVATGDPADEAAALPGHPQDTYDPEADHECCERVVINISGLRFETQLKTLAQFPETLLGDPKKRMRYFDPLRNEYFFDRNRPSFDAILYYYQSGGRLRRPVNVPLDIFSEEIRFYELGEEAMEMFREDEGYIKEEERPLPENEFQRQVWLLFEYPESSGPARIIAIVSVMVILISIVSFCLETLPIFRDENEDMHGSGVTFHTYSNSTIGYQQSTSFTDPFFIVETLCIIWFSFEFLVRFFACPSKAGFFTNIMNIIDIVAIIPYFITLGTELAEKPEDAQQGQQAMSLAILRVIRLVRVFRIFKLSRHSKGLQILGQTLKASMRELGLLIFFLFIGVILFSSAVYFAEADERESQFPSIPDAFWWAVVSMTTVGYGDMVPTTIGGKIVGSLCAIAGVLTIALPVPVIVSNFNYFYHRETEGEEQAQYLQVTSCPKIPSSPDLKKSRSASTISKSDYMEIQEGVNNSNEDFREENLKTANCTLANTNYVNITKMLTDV
Kv1.1, sequence (Q09470 whole entry): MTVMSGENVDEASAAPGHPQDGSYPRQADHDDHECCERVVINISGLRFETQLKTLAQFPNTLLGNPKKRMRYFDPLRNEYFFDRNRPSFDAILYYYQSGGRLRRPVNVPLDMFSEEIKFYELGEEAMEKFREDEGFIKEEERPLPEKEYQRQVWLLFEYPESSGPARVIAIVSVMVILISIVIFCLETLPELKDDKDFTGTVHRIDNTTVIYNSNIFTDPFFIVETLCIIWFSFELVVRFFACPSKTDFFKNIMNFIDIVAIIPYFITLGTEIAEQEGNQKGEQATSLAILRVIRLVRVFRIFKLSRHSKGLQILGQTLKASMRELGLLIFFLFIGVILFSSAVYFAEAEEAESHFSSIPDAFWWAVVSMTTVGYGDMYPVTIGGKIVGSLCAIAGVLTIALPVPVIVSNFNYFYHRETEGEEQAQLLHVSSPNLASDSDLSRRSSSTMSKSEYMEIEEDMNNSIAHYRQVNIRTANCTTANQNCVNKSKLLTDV
Kv1.4, sequence (P22459 whole entry): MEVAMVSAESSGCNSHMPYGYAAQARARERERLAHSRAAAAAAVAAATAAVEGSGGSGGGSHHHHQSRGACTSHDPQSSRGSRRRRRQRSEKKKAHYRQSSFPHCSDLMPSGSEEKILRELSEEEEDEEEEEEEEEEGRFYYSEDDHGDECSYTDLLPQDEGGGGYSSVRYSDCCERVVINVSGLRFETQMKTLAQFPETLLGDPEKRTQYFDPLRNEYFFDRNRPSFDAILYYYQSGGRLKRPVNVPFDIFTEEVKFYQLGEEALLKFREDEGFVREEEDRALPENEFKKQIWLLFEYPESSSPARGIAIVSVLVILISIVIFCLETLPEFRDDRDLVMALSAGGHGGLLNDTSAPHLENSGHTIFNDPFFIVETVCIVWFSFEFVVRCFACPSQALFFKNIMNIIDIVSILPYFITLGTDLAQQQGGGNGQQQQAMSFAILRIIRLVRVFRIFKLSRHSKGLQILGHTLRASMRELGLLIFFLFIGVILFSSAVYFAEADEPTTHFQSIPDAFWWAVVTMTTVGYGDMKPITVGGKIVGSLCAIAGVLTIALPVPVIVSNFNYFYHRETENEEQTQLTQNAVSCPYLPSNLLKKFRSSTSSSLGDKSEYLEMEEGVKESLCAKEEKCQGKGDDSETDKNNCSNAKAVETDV
Kv1.5, sequence (P22460 whole entry): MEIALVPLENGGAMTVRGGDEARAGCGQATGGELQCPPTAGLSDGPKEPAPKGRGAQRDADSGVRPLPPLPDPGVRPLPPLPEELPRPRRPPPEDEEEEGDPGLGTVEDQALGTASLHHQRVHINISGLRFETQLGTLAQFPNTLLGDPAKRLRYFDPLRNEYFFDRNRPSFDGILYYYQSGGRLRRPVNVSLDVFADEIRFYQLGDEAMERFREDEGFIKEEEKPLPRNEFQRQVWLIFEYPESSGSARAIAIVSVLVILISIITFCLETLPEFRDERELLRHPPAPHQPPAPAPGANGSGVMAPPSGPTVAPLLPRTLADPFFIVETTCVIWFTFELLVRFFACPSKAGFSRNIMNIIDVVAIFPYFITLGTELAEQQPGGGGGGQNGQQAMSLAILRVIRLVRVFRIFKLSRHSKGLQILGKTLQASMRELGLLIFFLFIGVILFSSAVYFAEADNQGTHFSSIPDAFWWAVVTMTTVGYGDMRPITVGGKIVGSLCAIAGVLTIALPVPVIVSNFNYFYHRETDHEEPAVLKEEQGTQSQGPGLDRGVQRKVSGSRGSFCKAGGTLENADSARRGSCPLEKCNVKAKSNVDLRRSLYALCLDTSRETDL
SKMI, sequence (P35499 whole entry): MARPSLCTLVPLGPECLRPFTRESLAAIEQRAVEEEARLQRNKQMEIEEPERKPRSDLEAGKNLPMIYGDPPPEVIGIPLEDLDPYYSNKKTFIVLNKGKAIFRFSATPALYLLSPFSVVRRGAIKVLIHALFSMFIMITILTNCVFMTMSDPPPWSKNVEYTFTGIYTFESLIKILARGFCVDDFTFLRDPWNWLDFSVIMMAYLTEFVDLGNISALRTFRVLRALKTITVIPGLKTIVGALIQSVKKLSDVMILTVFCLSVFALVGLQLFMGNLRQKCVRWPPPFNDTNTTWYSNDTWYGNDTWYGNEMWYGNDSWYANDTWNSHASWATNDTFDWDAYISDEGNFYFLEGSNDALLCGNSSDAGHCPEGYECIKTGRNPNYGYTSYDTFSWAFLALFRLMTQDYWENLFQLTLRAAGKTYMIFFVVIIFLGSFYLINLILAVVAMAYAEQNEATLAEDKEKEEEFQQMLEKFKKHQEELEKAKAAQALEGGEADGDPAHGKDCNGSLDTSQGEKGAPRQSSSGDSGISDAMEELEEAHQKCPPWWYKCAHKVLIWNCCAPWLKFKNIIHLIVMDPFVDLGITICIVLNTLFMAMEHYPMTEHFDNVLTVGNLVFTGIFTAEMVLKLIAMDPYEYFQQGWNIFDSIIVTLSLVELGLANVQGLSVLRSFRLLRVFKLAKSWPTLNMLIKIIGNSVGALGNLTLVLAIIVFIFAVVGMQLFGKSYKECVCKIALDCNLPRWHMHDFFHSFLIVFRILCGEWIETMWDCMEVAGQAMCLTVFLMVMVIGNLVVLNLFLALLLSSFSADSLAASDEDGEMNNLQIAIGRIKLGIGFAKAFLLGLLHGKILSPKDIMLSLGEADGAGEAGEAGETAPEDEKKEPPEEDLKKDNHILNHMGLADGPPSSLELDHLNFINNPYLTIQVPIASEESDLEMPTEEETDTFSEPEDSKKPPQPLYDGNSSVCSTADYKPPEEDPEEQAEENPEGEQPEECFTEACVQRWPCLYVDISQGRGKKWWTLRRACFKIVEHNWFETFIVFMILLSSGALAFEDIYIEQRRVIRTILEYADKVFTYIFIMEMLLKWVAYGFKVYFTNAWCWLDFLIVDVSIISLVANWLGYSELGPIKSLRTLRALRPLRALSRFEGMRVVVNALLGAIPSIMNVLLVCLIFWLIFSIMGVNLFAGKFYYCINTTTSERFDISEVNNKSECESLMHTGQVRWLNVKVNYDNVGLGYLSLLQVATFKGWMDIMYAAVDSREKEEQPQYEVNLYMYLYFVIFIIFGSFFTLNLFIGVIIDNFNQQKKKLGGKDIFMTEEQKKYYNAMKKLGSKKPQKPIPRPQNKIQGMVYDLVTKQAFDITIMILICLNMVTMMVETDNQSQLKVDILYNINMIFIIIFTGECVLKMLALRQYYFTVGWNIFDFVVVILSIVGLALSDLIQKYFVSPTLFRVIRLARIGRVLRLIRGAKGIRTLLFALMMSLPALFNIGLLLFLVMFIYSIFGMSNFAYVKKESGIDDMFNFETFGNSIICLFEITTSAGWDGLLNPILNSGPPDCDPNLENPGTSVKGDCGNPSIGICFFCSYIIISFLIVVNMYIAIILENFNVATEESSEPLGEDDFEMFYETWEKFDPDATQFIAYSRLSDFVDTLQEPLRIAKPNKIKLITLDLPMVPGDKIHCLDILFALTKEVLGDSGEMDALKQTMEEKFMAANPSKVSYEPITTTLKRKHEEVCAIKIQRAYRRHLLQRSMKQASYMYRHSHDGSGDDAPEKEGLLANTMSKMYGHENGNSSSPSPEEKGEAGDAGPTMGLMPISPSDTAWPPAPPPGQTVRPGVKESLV

Q: With `COc1c(C(C)=O)c(O)c(OC)c2occc12` [Comparative Example 1 (Khellinone)] as the compound, how does the Kd (Kv1.3) read?
A: Its Kd is 70000 nM.

Q: For `COc1c2occc2cc2ccc(=O)oc12` [Comparative Example 2 (3-MOP)], which Kd (Kv1.3) is on record?
A: The Kd was 160000 nM.

Q: With `COc1c(C(C)=O)c(OCCCCCOc2c(C(C)=O)c(OC)c3ccoc3c2OC)c(OC)c2occc12` [Example 1] as the compound, how does the Kd (Kv1.3) read?
A: Its Kd is 820 nM.

Q: What about the Kd (Kv1.2) of the same compound?
A: The Kd was 1500 nM.

Q: What about the “Solubility in aqueous media” value [1] of the same compound?
A: Its value is “soluble enough in aqueous media to be tested”.

Q: Which results are given for `COc1c(C(C)=O)c(OCCCCCCOc2c(C(C)=O)c(OC)c3ccoc3c2OC)c(OC)c2occc12` [Example 2]?
A: Kind of block (Kv1.3) (Kv1.3): Block phasic; Kd (Kv1.3): 680 nM; Kd (Kv1.1): 320 nM; Kd (Kv1.2): 250 nM; Normalised [3H]-TdR incorporation ([2]; 100 nM): 0.86 +/− 0.04; Normalised [3H]-TdR incorporation ([2]; 250 nM): 0.76 +/− 0.06; Normalised [3H]-TdR incorporation ([2]; 1 μM): 0.38 +/− 0.05; Normalised [3H]-TdR incorporation ([2]; 10 μM): 0.01 +/− 0.003; EC50 ([2]; Homo sapiens, read-out: EC50, inhibition of [3H]-thymidine incorporation): ~800 nM; Solubility in aqueous media [1]: soluble enough in aqueous media to be tested

Q: For `COc1c(C(C)=O)c(OCc2ccc(COc3cc4occc4c(OC)c3C(C)=O)cc2)cc2occc12` [Example 4, 1,4-bis(5-acetyl-4-methoxybenzofuran-6-yloxymethyl)benzene], which Kd (Kv1.3) is on record?
A: Its Kd is 1100 nM.

Q: What about the “Effect on Kv1.2” value (Kv1.2; at 5 μM) of the same compound?
A: Its value is “No effect”.

Q: Which Kd (Kv1.3) does the source give for `COc1c(C(C)=O)c(OCCOCCOc2c(C(C)=O)c(OC)c3ccoc3c2OC)c(OC)c2occc12` [Example 5] here?
A: Its Kd is 4000 nM.

Q: And the “Solubility in aqueous media” value [1]?
A: Its value is “significantly more soluble in aqueous conditions than comparative example 2”.

Q: With `COC(=O)c1cc(COc2c(C(C)=O)c(OC)c3ccoc3c2OC)ccc1COc1c(C(C)=O)c(OC)c2ccoc2c1OC` [Example 7, 2,5-Bis(5-acetyl-4,7-dimethoxy-6-benzofuran-6-yloxymethyl)benzoic acid, methyl ester] as the compound, how does the Kd (Kv1.3) read?
A: Its Kd is 3000 nM.

Q: And the melting point?
A: Its melting point is 87 to 89 °C.

Q: Which Kd (Kv1.3) does the source give for `COc1c(C(C)=O)c(OCc2ccc(COc3c(C(C)=O)c(OC)c4ccoc4c3OC)c(C(=O)O)c2)c(OC)c2occc12` [Example 8, 2,5-Bis(5-acetyl-4,7-dimethoxybenzofuran-6-yloxymethyl)benzoic acid] here?
A: The Kd was 5000 nM.

Q: Which Kd (Kv1.3) does the source give for `O=c1ccc2cc3ccoc3c(OCc3ccc(COc4c5occc5cc5ccc(=O)oc45)cc3)c2o1` [compound 3, reference compound] here?
A: The Kd was 17000 nM.

Q: For `COc1c(C(C)=O)c(OCc2ccc(COc3c(C(C)=O)c(OC)c4ccoc4c3OC)cc2)c(OC)c2occc12` [compound 4], which Kd (Kv1.3) is on record?
A: The Kd was 280 nM.

Q: And the Kd (Kv1.1)?
A: Its Kd is 3000 nM.

Q: And the Kd (Kv1.2)?
A: The Kd was 5000 nM.

Q: And the Kd (Kv1.4)?
A: The Kd was 2200 nM.

Q: What about the Kd (Kv1.5) of the same compound?
A: Its Kd is 1100 nM.

Q: And the Kd (IKCa1)?
A: Its Kd is > 20000 nM.

Q: What about the “Effect on SKMI” value (SKMI) of the same compound?
A: Its value is “No effect”.

Q: And the “Solubility in aqueous media” value [1]?
A: Its value is “so poorly soluble in aqueous media”.

Q: And the Stability (Stability)?
A: Its Stability is “good stability”.

Q: For `COc1c(C(C)=O)c(OCc2cccc(COc3c(C(C)=O)c(OC)c4ccoc4c3OC)c2)c(OC)c2occc12` [compound 5, reference compound], which Kd (Kv1.3) is on record?
A: Its Kd is 560 nM.

Q: With `COc1c(C(C)=O)c(OCc2ccccc2COc2c(C(C)=O)c(OC)c3ccoc3c2OC)c(OC)c2occc12` [compound 6, reference compound] as the compound, how does the Kd (Kv1.3) read?
A: The Kd was 7000 nM.
